*1 amine or outer side, *2 acyl side, *3 side chain or, on linkers, in order; H or OH if unused. Where a SMILES comes first, the peptide text is derived from it. Bridges are numbered along the chain shown (N, C = ends). Roman numbers before positions name the chains, in order. [ ]: non-standard residue; d: D form. Actinocin(1to9) = Cc1c2oc3c(C)ccc(C(=O)[*:2])c3nc-2c(C(=O)[*:1])c(N)c1=O; NMeV = CN[C@H](C(=O)O)C(C)C; Sar = CNCC(=O)O

Broadly, the IC50 is the point on the concentration scale where inhibition reaches its midpoint.

Experiment [1] can be described thus: DRUGMATRIX: Leukotriene, BLT (LTB4) radioligand binding (ligand: [3H]LTB4). Format: cell membranes, Membrane. As to conditions: u-937; Not Active = under 50% inhibition at 10 µM.
The target of experiment [2] is C-C chemokine receptor type 2 (Homo sapiens, UniProt P41597). In kind it is cell membranes, CHO-K1, Membrane. Particulars: cho-k1. Note: in other assays of this panel Not Active means under 50% inhibition at 10 µM.
The nature of experiment [3]: DRUGMATRIX: Atrial Natriuretic Factor (ANF) radioligand binding (ligand: [125I] ANF (rat)). Particulars: Not Active = under 50% inhibition at 10 µM. Format: cell membranes, Cavia porcellus, Dunkin-Hartley, Adrenal gland, Membrane.
Experiment [4] deals with T1, Cathepsin G (Homo sapiens, UniProt P08311).
T1 sequence (P08311 whole entry): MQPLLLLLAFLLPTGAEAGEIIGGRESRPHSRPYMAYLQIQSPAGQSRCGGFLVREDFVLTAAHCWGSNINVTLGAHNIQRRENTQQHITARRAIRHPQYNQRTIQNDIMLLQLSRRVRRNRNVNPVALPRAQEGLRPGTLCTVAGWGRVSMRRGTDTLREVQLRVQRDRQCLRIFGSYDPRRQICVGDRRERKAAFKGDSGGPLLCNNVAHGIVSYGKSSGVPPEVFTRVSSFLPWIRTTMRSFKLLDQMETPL
Format: tissue-based. As to conditions: neutrophil.

Experiment [5] can be described thus: DRUGMATRIX: ATPase, Na+/K+ enzyme inhibition (substrate: ATP). In kind it is tissue-based, Sus scrofa, Heart. As to conditions: Not Active = under 50% inhibition at 10 µM.
Experiment [6] deals with Aldo-keto reductase family 1 member B1 (Rattus norvegicus, UniProt P07943). Kind of experiment: biochemical. In kind it is tissue-based, Lens of camera-type eye.
Experiment [7] has as its target T2, Thromboxane-A synthase (Homo sapiens, UniProt P24557).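 Note: enzyme inhibition assay with PGH2 supplied as substrate; in other assays of this panel Not Active means under 50% inhibition at 10 µM.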
T2 sequence (P24557 whole entry): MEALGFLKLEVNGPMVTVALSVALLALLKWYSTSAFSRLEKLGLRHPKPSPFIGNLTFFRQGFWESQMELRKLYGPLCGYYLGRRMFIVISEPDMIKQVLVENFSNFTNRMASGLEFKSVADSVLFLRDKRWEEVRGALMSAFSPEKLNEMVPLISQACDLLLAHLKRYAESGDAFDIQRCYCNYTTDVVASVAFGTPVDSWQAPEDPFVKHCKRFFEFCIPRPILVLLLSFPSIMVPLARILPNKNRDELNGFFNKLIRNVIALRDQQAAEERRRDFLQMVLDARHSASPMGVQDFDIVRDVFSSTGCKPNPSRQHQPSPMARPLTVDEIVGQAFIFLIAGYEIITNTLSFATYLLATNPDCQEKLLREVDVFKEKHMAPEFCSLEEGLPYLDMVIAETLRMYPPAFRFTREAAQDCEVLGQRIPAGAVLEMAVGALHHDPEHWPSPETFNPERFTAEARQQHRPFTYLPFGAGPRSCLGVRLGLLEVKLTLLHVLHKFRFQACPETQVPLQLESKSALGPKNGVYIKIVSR
Kind of experiment: biochemical. Particulars: platelet. Format: tissue-based, Platelet.

Experiment [8] is described as follows: DRUGMATRIX: Purinergic P2X radioligand binding (ligand: [3H] alpha, beta-Methylene-ATP). Format: cell membranes, Oryctolagus cuniculus, New Zealand albino, Urinary bladder, Membrane. Particulars: Not Active = under 50% inhibition at 10 µM.

C-C chemokine receptor type 2, sequence (P41597 whole entry): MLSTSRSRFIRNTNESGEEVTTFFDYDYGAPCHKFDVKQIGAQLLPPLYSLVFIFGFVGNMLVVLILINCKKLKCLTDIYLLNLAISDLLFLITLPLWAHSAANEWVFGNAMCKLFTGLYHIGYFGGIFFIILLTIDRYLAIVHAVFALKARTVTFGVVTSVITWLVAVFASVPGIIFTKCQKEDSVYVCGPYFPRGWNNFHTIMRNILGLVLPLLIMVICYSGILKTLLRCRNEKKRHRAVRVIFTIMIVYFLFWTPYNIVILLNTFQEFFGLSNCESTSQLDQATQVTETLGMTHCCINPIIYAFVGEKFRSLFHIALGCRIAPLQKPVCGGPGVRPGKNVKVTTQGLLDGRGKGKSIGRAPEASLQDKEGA

As for `CN(C)CCCN1c2ccccc2Sc2ccc(Cl)cc21` [CHLORPROMAZINE], the 50% inhibitory concentration (IC50) entry in experiment [1], in experiment [2], in experiment [3], in experiment [4], in experiment [5] and in experiment [6] was “Not Active” each time. The half-maximal inhibitory concentration (IC50) result in experiment [7] and in experiment [8] was “Not Active” throughout. Moreover, the Ki result in experiment [1], in experiment [3], in experiment [5] and in experiment [8] was “Not Active” in each case.

As to `CCOC(=O)C1=C(COCCN)NC(C)=C(C(=O)OC)C1c1ccccc1Cl` (stereo not given) [AMLODIPINE], the concentration for half-maximal inhibition (IC50) result in experiment [1], in experiment [2], in experiment [3], in experiment [4], in experiment [5] and in experiment [6] was “Not Active” each time. Besides, the half-inhibitory concentration (IC50) result in experiment [7] and in experiment [8] was “Not Active” in each case. The Ki result in experiment [1], in experiment [3], in experiment [5] and in experiment [8] was “Not Active” each time.

On to `CC1Cc2ccccc2N1NC(=O)c1ccc(Cl)c(S(N)(=O)=O)c1` (stereo not given) [INDAPAMIDE], for which the 50% inhibitory concentration (IC50) result in experiment [1], in experiment [2], in experiment [3], in experiment [4], in experiment [5] and in experiment [6] was “Not Active” in each case. Besides, the 50% inhibitory concentration (IC50) entry in experiment [7] and in experiment [8] was “Not Active” in each case. Moreover, the Ki result in experiment [1], in experiment [3], in experiment [5] and in experiment [8] was “Not Active” each time.

For the compound LEAD (II) ACETATE, the concentration for half-maximal inhibition (IC50) entry in experiment [1], in experiment [2], in experiment [3], in experiment [4], in experiment [5] and in experiment [6] was “Not Active” throughout. For the same compound, the IC50 entry in experiment [7] and in experiment [8] was “Not Active” each time. Moreover, the Ki entry in experiment [1], in experiment [2], in experiment [3], in experiment [4], in experiment [5] and in experiment [6] was “Not Active” throughout. Moreover, the Ki result in experiment [7] and in experiment [8] was “Not Active” throughout.

`Cc1c2oc3c(C)ccc(C(=O)N[C@@H]4C(=O)N[C@H](C(C)C)C(=O)N5CCC[C@H]5C(=O)N(C)CC(=O)N(C)[C@@H](C(C)C)C(=O)O[C@@H]4C)c3nc-2c(C(=O)N[C@@H]2C(=O)N[C@H](C(C)C)C(=O)N3CCC[C@H]3C(=O)N(C)CC(=O)N(C)[C@@H](C(C)C)C(=O)O[C@@H]2C)c(N)c1=O` [DACTINOMYCIN] (I: T[dV]P[Sar][NMeV] / II: T[dV]P[Sar][NMeV]; ester I:1-I:C, II:1-II:C; linker I:N-II:N via Actinocin(1to9)): the half-maximal inhibitory concentration (IC50) entry in experiment [1], in experiment [2], in experiment [3], in experiment [4], in experiment [5] and in experiment [6] was “Not Active” each time. Moreover, the IC50 result in experiment [7] and in experiment [8] was “Not Active” each time. Further, the Ki result in experiment [1], in experiment [3], in experiment [5] and in experiment [8] was “Not Active” in each case.

Regarding `NCCCCCC(=O)O` [AMINOCAPROIC ACID], the concentration for half-maximal inhibition (IC50) result in experiment [1], in experiment [2], in experiment [3], in experiment [4], in experiment [5] and in experiment [6] was “Not Active” in each case. In addition, the IC50 result in experiment [7] and in experiment [8] was “Not Active” in each case. In addition, the Ki result in experiment [1], in experiment [3], in experiment [5] and in experiment [8] was “Not Active” throughout.

For the compound `c1ccc(Nc2ccc(Nc3ccccc3)cc2)cc1`, the IC50 entry in experiment [1], in experiment [2], in experiment [3], in experiment [4], in experiment [5] and in experiment [6] was “Not Active” in each case. In addition, the IC50 entry in experiment [7] and in experiment [8] was “Not Active” each time. Also, the Ki result in experiment [1], in experiment [3], in experiment [5] and in experiment [8] was “Not Active” throughout.

Turning to `NC(=O)N1c2ccccc2CCc2ccccc21`, the half-inhibitory concentration (IC50) entry in experiment [1], in experiment [2], in experiment [3], in experiment [4], in experiment [5] and in experiment [6] was “Not Active” throughout. In addition, the IC50 result in experiment [7] and in experiment [8] was “Not Active” throughout. The Ki result in experiment [1], in experiment [3], in experiment [5] and in experiment [8] was “Not Active” throughout.

For the compound `Cc1ccc(-c2cc(C(F)(F)F)nn2-c2ccc(S(N)(=O)=O)cc2)cc1` [CELECOXIB], the IC50 entry in experiment [1], in experiment [2], in experiment [3], in experiment [4], in experiment [5] and in experiment [6] was “Not Active” throughout. Further, the 50% inhibitory concentration (IC50) entry in experiment [7] and in experiment [8] was “Not Active” each time. Also, the Ki result in experiment [1], in experiment [3], in experiment [5] and in experiment [8] was “Not Active” each time.

With `Cc1onc(-c2ccccc2Cl)c1C(=O)N[C@@H]1C(=O)N2[C@@H]1SC(C)(C)[C@@H]2C(=O)O` [CLOXACILLIN], the IC50 result in experiment [1], in experiment [2], in experiment [3], in experiment [4], in experiment [5] and in experiment [6] was “Not Active” throughout. Moreover, the concentration for half-maximal inhibition (IC50) result in experiment [7] and in experiment [8] was “Not Active” each time. Further, the Ki entry in experiment [1], in experiment [3], in experiment [5] and in experiment [8] was “Not Active” throughout.

As for `CCCN1C[C@H](CSC)C[C@@H]2c3cccc4[nH]cc(c34)C[C@H]21` [PERGOLIDE], the IC50 entry in experiment [1], in experiment [2], in experiment [3], in experiment [4], in experiment [5] and in experiment [6] was “Not Active” in each case. For the same compound, the concentration for half-maximal inhibition (IC50) entry in experiment [7] and in experiment [8] was “Not Active” each time. Besides, the Ki result in experiment [1], in experiment [3], in experiment [5] and in experiment [8] was “Not Active” in each case.

Consider LIPOPOLYSACCHARIDE E. COLI O55:B5, for which the 50% inhibitory concentration (IC50) entry in experiment [1] was “Not Active”; in experiment [2], “Not Active”; in experiment [3], “Not Active”; in experiment [4] (read-out: IC50), 852 nM; in experiment [5], “Not Active”; in experiment [6], “Not Active”. Also, the concentration for half-maximal inhibition (IC50) result in experiment [7] and in experiment [8] was “Not Active” throughout. For the same compound, the Ki result in experiment [1], in experiment [2], in experiment [3], in experiment [5], in experiment [6] and in experiment [7] was “Not Active” in each case. In addition, the Ki result in experiment [8] is recorded as “Not Active”.

For the compound `CC(O)CO` (stereo not given) [PROPYLENE GLYCOL], the half-maximal inhibitory concentration (IC50) result in experiment [1], in experiment [2], in experiment [3], in experiment [4], in experiment [5] and in experiment [6] was “Not Active” in each case. Besides, the half-inhibitory concentration (IC50) entry in experiment [7] and in experiment [8] was “Not Active” throughout. Besides, the Ki result in experiment [1], in experiment [3], in experiment [5] and in experiment [8] was “Not Active” each time.

Take `CC(C)C(Br)C(=O)NC(N)=O` (stereo not given) [BROMISOVALUM]: the IC50 entry in experiment [1], in experiment [2], in experiment [3], in experiment [4], in experiment [5] and in experiment [6] was “Not Active” each time. For the same compound, the IC50 entry in experiment [7] and in experiment [8] was “Not Active” each time. Moreover, the Ki result in experiment [1], in experiment [3], in experiment [5] and in experiment [8] was “Not Active” each time.

The values are drawn from ChEMBL document CHEMBL1909046, “DrugMatrix in vitro pharmacology data”.
